The values below come from patent US8557800B2, “Sphingosine kinase inhibitors” (Apogee Biotechnology Corporation, priority 2005, dated 2013).

Molecules are shown by their SMILES. A value given as a limit tells only on which side of the number the result lay.

For one assay, the system named is recombinant human SK. Nature of the assay: Inhibition of recombinant human SK, LC/MS/MS assay. The format is biochemical. As to conditions: 6 μg/ml compound. The protocol: SK activity is measured by incubation of the recombinant SK with [^3H]sphingosine and 1 mM ATP under defined conditions, followed by extraction of the assay mixture with chloroform:methanol under basic conditions. […] Radioactivity in aliquots of the aqueous phase is then quantified as a measure of [^3H]S1P formation.
In an alternate assay procedure, the recombinant human SK was incubated with unlabeled sphingosine and ATP as described above. After 30 minutes, the reactions were terminated by the addition of acetonitrile to directly extract the newly synthesized S1P. The amount of S1P in the samples is then quantified as follows. C17 base D-erythro-sphingosine and C17 SIP are used as internal standards for sphingosine and S1P, respectively. […] The lipids are then fractionation by High-Performance Liquid Chromatography using a C8-reverse phase column eluted with 1 mM methanolic ammonium formate/2 mM aqueous ammonium formate. […] Calibration curves are generated by plotting the peak area ratios of the synthetic standards for each sphingolipid, and used to determine the normalized amounts of sphingosine and S1P in the samples.
Each Compound of this invention was tested for its ability to inhibit recombinant SK using the LC/MS/MS assay described above.
On to `CN1CCC(NCC23CC4CC(C2)CC(c2ccc(Cl)cc2)(C4)C3)CC1` [Compound 82, [3-(4-Chloro-phenyl)-adamantan-1-ylmethyl]-(1-methyl-piperidin-4-yl)-amine], for which the “Recombinant SK (% inhibition)” value was found to be 75%.

As to `Fc1ccc(CNCC23CC4CC(C2)CC(c2ccc(Cl)cc2)(C4)C3)cc1C(F)(F)F` [Compound 79, [3-(4-Chloro-phenyl)-adamantan-1-ylmethyl]-(4-fluoro-3-trifluoromethyl-benzyl)-amine], the “Recombinant SK (% inhibition)” value turned out to be 19%.

As to `O=C(Nc1nnn[nH]1)C12CC3CC(C1)CC(c1ccc(Cl)cc1)(C3)C2` [Compound 67, 3-(4-Chloro-phenyl)-adamantane-1-carboxylic acid (1H-tetrazol-5-yl)-amide], the “Recombinant SK (% inhibition)” value is 10%.

Turning to `Clc1ccc(C23CC4CC(CC(CNCCCN5CCCC5)(C4)C2)C3)cc1` [Compound 85, [3-(4-Chloro-phenyl)-adamantan-1-ylmethyl]-(3-pyrrolidin-1-yl-propyl)-amine], the “Recombinant SK (% inhibition)” value is 0%.

Consider `CC(C)(C)NCCCNCC12CC3CC(C1)CC(c1ccc(Cl)cc1)(C3)C2` [Compound 84, N-tert-Butyl-N′-[3-(4-chloro-phenyl)-adamantan-1-ylmethyl]-propane-1,3-diamine], for which the “Recombinant SK (% inhibition)” value came out at 84%.

With `O=C(NCCCc1ccccc1)C12CC3CC(C1)CC(c1ccc(Cl)cc1)(C3)C2` [Compound 48, 3-(4-Chloro-phenyl)-adamantane-1-carboxylic acid (3-phenyl-propyl)-amide], the “Recombinant SK (% inhibition)” value amounted to 36%.

For the compound `FC(F)(F)Oc1ccc(CNCC23CC4CC(C2)CC(c2ccc(Cl)cc2)(C4)C3)cc1` [Compound 80, [3-(4-Chloro-phenyl)-adamantan-1-ylmethyl]-(4-trifluoromethoxy-benzyl)-amine], the “Recombinant SK (% inhibition)” value is reported as 5%.

With `Clc1ccc(C23CC4CC(CC(CNCCc5cccc(Oc6ccccc6)c5)(C4)C2)C3)cc1` [Compound 81, [3-(4-Chloro-phenyl)-adamantan-1-ylmethyl]-[2-(3-phenoxy-phenyl)-ethyl]-amine], the “Recombinant SK (% inhibition)” value is 67%.

Consider `O=C(NCc1ccncc1)C12CC3CC(C1)CC(c1ccc(F)cc1)(C3)C2` [Compound 61, 3-(4-Fluoro-phenyl)-adamantane-1-carboxylic acid (pyridin-4-ylmethyl)-amide], for which the “Recombinant SK (% inhibition)” value was found to be 58%.

For `O=C(NCCN1CCNCC1)C12CC3CC(C1)CC(c1ccc(Cl)cc1)(C3)C2` [Compound 59, 3-(4-Chloro-phenyl)-adamantane-1-carboxylic acid (2-piperazin-1-yl-ethyl)-amide], the “Recombinant SK (% inhibition)” value stood at 0%.

As for `O=C(NCCCn1ccnc1)C12CC3CC(C1)CC(c1ccc(Cl)cc1)(C3)C2` [Compound 65, 3-(4-Chloro-phenyl)-adamantane-1-carboxylic acid (3-imidazol-1-yl-propyl)-amide], the “Recombinant SK (% inhibition)” value was determined as 3%.

Take `FC(F)(F)c1ccc(CNCC23CC4CC(C2)CC(c2ccc(Cl)cc2)(C4)C3)cc1` [Compound 77, [3-(4-Chloro-phenyl)-adamantan-1-ylmethyl]-(4-trifluoromethyl-benzyl)-amine]: the “Recombinant SK (% inhibition)” value was determined as 27%.

As for `CC(NC(=O)Nc1ccc(Cl)c(C(F)(F)F)c1)C12CC3CC(CC(c4ccc(Cl)cc4)(C3)C1)C2` (centres unmarked) [Compound 118, 1-{1-[3-(4-Chloro-phenyl)-adamantan-1-yl]-ethyl}-3-(4-chloro-3-trifluoromethyl-phenyl)-urea], the “Recombinant SK (% inhibition)” value is listed as 77%.

The next assay relates to MCF-7 human breast adenocarcinoma cells. Nature of the assay: Cytotoxicity, SRB binding assay. The format is cell-based. The following applies: MCF7, inhibition of cell proliferation, 48 h, read-out: MCF-7 IC50. On the procedure:
To further assess the biological efficacies of the Compounds in intact cells, each Compound was evaluated for cytotoxicity using human cancer cell lines. These experiments followed methods that have been extensively used. Cell lines tested included MCF-7 human breast adenocarcinoma cells and MCF-10A non-transformed human breast epithelial cells. The indicated cell lines were treated with varying doses of the test Compound for 48 h. Cell survival was then determined using the SRB binding assay (Skehan et al., 1990, J Natl Cancer Inst 82: 1107), and the concentration of compound that inhibited proliferation by 50% (the IC50) was calculated. Values (in μM) represent the mean±sd for replicate trials.
On the technique in general: Sulforhodamine B stains cellular protein and so reports cell mass.
With `CC(NCc1ccccc1)C12CC3CC(CC(c4ccc(Cl)cc4)(C3)C1)C2` (centres unmarked) [Compound 99, Benzyl-{1-[3-(4-chloro-phenyl)-adamantan-1-yl]-ethyl}-amine], the IC50 was found to be 0.7 µM.

Consider `CC(NCc1cc(-c2ccccc2)cs1)C12CC3CC(CC(c4ccc(Cl)cc4)(C3)C1)C2` (centres unmarked) [Compound 120, {1-[3-(4-Chloro-phenyl)-adamantan-1-yl]-ethyl}-(4-phenyl-thiophen-2-ylmethyl)-amine], for which the IC50 was 108 µM.

`CC(NCCc1ccc(Br)cc1)C12CC3CC(CC(C3)C1)C2` (centres unmarked) [Compound 102, (1-Adamantan-1-yl-ethyl)-[2-(4-bromo-phenyl)-ethyl]-amine]: the IC50 came out at 2 µM.

Regarding `CC(C)NCC12CC3CC(C1)CC(c1ccc(Cl)cc1)(C3)C2` [Compound 75, [3-(4-Chloro-phenyl)-adamantan-1-ylmethyl]-isopropyl-amine], the half-inhibitory concentration (IC50) amounted to 11 µM.

In the case of `CC(NCc1ccc(C(C)(C)C)cc1)C12CC3CC(CC(c4ccc(Cl)cc4)(C3)C1)C2` (centres unmarked) [Compound 100, (4-tert-Butyl-benzyl)-{1-[3-(4-chloro-phenyl)-adamantan-1-yl]-ethyl}-amine], the IC50 was found to be 0.3 µM.

Consider `CC(Nc1ccccc1)C12CC3CC(CC(c4ccc(F)cc4)(C3)C1)C2` (centres unmarked) [Compound 94, {1-[3-(4-Fluoro-phenyl)-adamantan-1-yl]-ethyl}-phenyl-amine], for which the IC50 stood at 0.6 µM.

Take `CCn1c2ccccc2c2cc(C(=O)NC(C)C34CC5CC(CC(c6ccc(Cl)cc6)(C5)C3)C4)ccc21` (centres unmarked) [Compound 116, 9-Ethyl-9H-carbazole-3-carboxylic acid {1-[3-(4-chloro-phenyl)-adamantan-1-yl]-ethyl}-amide]: the concentration for half-maximal inhibition (IC50) stood at 6 µM.

Regarding `O=C(NCc1cccc(C(F)(F)F)c1)C12CC3CC(C1)CC(c1ccc(Cl)cc1)(C3)C2` [Compound 15, 3-(4-Chloro-phenyl)-adamantane-1-carboxylic acid 3-trifluoromethyl-benzylamide], the IC50 was above 112 µM.

Regarding `O=C(NCc1ccc(C(F)(F)F)cc1F)C12CC3CC(C1)CC(c1ccc(Cl)cc1)(C3)C2` [Compound 19, 3-(4-Chloro-phenyl)-adamantane-1-carboxylic acid 2-fluoro-4-trifluoromethyl-benzylamide], the IC50 is above 108 µM.

With `Cc1cc2cc(NC(C)C34CC5CC(CC(c6ccc(Cl)cc6)(C5)C3)C4)ccc2[nH]1` (centres unmarked) [Compound 113, {1-[3-(4-Chloro-phenyl)-adamantan-1-yl]-ethyl}-(2-methyl-1H-indol-5-yl)-amine], the half-inhibitory concentration (IC50) came to 14 µM.

As to `CC(NCc1cc(Br)cs1)C12CC3CC(CC(c4ccc(Cl)cc4)(C3)C1)C2` (centres unmarked) [Compound 119, (4-Bromo-thiophen-2-ylmethyl)-{1-[3-(4-chloro-phenyl)-adamantan-1-yl]-ethyl}-amine], the IC50 amounted to 11 µM.

With `O=C(/C=C/c1cc(-c2ccccc2)cs1)C12CC3CC(C1)CC(c1ccc(Cl)cc1)(C3)C2` [Compound 137, 1-[3-(4-Chloro-phenyl)-adamantan-1-yl]-3-(4-phenyl-thiophen-2-yl)-propenone], the IC50 is 9 µM.

With `CC(NCc1ccccc1)C12CC3CC(CC(c4ccccc4)(C3)C1)C2` (centres unmarked) [Compound 97, Benzyl-[1-(3-phenyl-adamantan-1-yl)-ethyl]-amine], the IC50 amounted to 0.5 µM.

For the compound `CCn1c2ccccc2c2cc(CNC(C)C34CC5CC(CC(c6ccc(Cl)cc6)(C5)C3)C4)ccc21` (centres unmarked) [Compound 115, {1-[3-(4-Chloro-phenyl)-adamantan-1-yl]-ethyl}-(9-ethyl-9H-carbazol-3-ylmethyl)-amine], the IC50 turned out to be 1 µM.

For `CC(NCc1ccc(Cl)nc1)C12CC3CC(CC(c4ccc(Cl)cc4)(C3)C1)C2` (centres unmarked) [Compound 110, {1-[3-(4-Chloro-phenyl)-adamantan-1-yl]-ethyl}-(6-chloro-pyridin-3-ylmethyl)-amine], the 50% inhibitory concentration (IC50) is 6 µM.

In the case of `CC(NC(=O)Nc1ccc(Cl)c(C(F)(F)F)c1)C12CC3CC(CC(c4ccc(Cl)cc4)(C3)C1)C2` (centres unmarked) [Compound 117, 1-{1-[3-(4-Chloro-phenyl)-adamantan-1-yl]-ethyl}-3-(4-chloro-3-trifluoromethyl-phenyl)-urea], the half-inhibitory concentration (IC50) was 3 µM.

On to `CC(NCc1cnc[nH]1)C12CC3CC(CC(c4ccc(Cl)cc4)(C3)C1)C2` (centres unmarked) [Compound 112, {1-[3-(4-Chloro-phenyl)-adamantan-1-yl]-ethyl}-(3H-imidazol-4-ylmethyl)-amine], for which the IC50 turned out to be 5 µM.

For `CC(NCCc1ccncc1)C12CC3CC(CC(c4ccc(Cl)cc4)(C3)C1)C2` (centres unmarked) [Compound 111, {1-[3-(4-Chloro-phenyl)-adamantan-1-yl]-ethyl}-(2-pyridin-4-yl-ethyl)-amine], the 50% inhibitory concentration (IC50) is 13 µM.

Consider `CC(NC(C)C12CC3CC(CC(c4ccc(Cl)cc4)(C3)C1)C2)c1ccc(Br)cc1` (centres unmarked) [Compound 101, [1-(4-Bromo-phenyl)-ethyl]-{1-[3-(4-chloro-phenyl)-adamantan-1-yl]-ethyl}-amine], for which the half-maximal inhibitory concentration (IC50) turned out to be 10 µM.

On to `CC(NCc1ccccc1)C12CC3CC(CC(c4ccc(F)cc4)(C3)C1)C2` (centres unmarked) [Compound 98, Benzyl-{1-[3-(4-fluoro-phenyl)-adamantan-1-yl]-ethyl}-amine], for which the half-maximal inhibitory concentration (IC50) was 3 µM.

As to `CC(NCc1ccncc1)C12CC3CC(CC(c4ccccc4)(C3)C1)C2` (centres unmarked) [Compound 109, [1-(3-Phenyl-adamantan-1-yl)-ethyl]-pyridin-4-ylmethyl-amine], the IC50 came to 26 µM.

Regarding `CC(NN1CCN(C)CC1)C12CC3CC(CC(c4ccc(Cl)cc4)(C3)C1)C2` (centres unmarked) [Compound 108, {1-[3-(4-Chloro-phenyl)-adamantan-1-yl]-ethyl}-(4-methyl-piperazin-1-yl)-amine], the half-inhibitory concentration (IC50) amounted to 5 µM.

The IC50 is the point on the concentration scale where inhibition reaches its midpoint.
